Experimental data published in a melting point compilation (Tetko et al.).

SMILES | melting point [°C]
CC(=O)c1sc(-c2ccc(O)cc2)nc1C | 133 to 135
NS(=O)(=O)N1CCC(C(=O)O)CC1 | 177 to 179
Sc1nnc(-c2ccccc2Br)[nH]1 | 195 to 197
O=C(O)c1nn(-c2ccccc2)cc1OC(F)F | 134 to 136
COc1c(N)cc(C(C)(C)C)cc1C(C)(C)C | 79 to 81
Cc1cccc2c(=O)[nH]cnc12 | 255 to 257
O=C(O)c1ccc(COc2ccc3ccccc3c2)o1 | 171 to 173
O=C(O)C1CCCN1C(=O)c1ccc(Cl)s1 (stereo not given) | 127 to 129
N#Cc1cnn(-c2cccc(C(=O)O)c2)c1N | 286 to 288
COc1ccc(S(N)(=O)=O)cc1NC(C)=O | 217 to 219
CC(C)(C)OC(=O)Nc1cc(N)c(F)cc1F | 117 to 119
ON=Cc1ccc(OCc2ccncc2)cc1 | 163 to 165
COc1ccc(NC(=O)NCCC(=O)O)cc1 | 174 to 176
O=c1[nH]c2cc(Br)ccc2o1 | 209 to 211
O=C1NC(=O)C(c2ccccc2)(C(F)(F)F)N1 (stereo not given) | 240 to 242
Nc1cccc(-c2nc(C3CC3)no2)c1 | 89 to 91
Nc1ccc(Sc2nc3ccccc3[nH]2)cc1 | 224 to 226
Cc1ccc(S(=O)(=O)NC(C)(C)C)cc1N | 124 to 126
Cc1ccc(CN2CCSCC2)cc1N | 136 to 138
COc1ccc(C=NO)cc1 | 64 to 66
Cc1cc(-c2cccc(F)c2)nnc1Cl | 132 to 134
CCCOc1ccc(CCC(=O)O)cc1 | 90 to 92
CC(C)(C)OC(=O)N1CCCC(n2cc(C(=O)O)cn2)C1 (stereo not given) | 166 to 168
Cc1nc(-c2cccs2)ccc1C(=O)O | 191 to 193
FC(F)(F)c1ccc(CNc2ccc(Br)cc2)cc1 | 70 to 72

SMILES | melting point [°C]
NC(=O)Nc1ccc(N)cc1 | 155 to 157
CC(C)(O)CN1CCNCC1 | 61 to 63
CCc1nc(N)no1 | 39 to 41
C/C(=N/O)c1ccc2c(c1)CCO2 | 122 to 124
COC(=O)c1ccc(N)c(OC(F)F)c1 | 64 to 66
COc1cc(Br)cc([N+](=O)[O-])c1 | 86 to 88
CCOC(=O)C(=O)Nc1ccc([N+](=O)[O-])cc1 | 172 to 174
COC(=O)c1ccc(S(C)(=O)=O)cc1 | 116 to 118
NNc1nc(-c2ccncc2)no1 | 189 to 191
O=[N+]([O-])c1ccc(-c2nc(CCl)co2)cc1 | 119 to 121
CC(=O)c1cnc2ccnn2c1C | 80 to 82
O=C(O)c1ccccc1C(=O)c1ccc(Cl)c(Cl)c1 | 187 to 189
Cc1cc(C)n(CCCCl)n1 | 202 to 204
NCc1noc(-c2ccsc2)n1 | 127 to 129
O=C(O)c1cc(-c2ccc(Cl)c(Cl)c2)ns1 | 208 to 210
Nc1ccc2ccn(Cc3ccccc3)c2c1 | 119 to 121
CC(Cn1cncn1)C(N)=S (stereo not given) | 169 to 171
Oc1ccc(I)nc1 | 185 to 187
O=C1CCc2c(F)cc(Br)cc21 | 114 to 116
Cc1nn(C)c2ncc(N)cc12 | 84 to 86
Sc1nc2cc(Cl)ccc2o1 | 277 to 279
CC(O)c1nc2cc(Cl)ccc2s1 (stereo not given) | 109 to 111
O=C(O)CCOc1ccc(Oc2ccccc2)cc1 | 118 to 120
CCNCC(=O)Nc1c(C)cccc1C | 45 to 47
S=c1[nH][nH]c(=Nc2cccc(Br)c2)s1 | 225 to 227

SMILES | melting point [°C]
O=C(O)CC(Br)C(=O)c1ccc(Cl)cc1 (stereo not given) | 113 to 117
O=C1CCc2cc(OCCCl)ccc2N1 | 150 to 152
COc1ccc(-c2cc(C(=O)O)[nH]n2)cc1 | 209 to 211
Cc1cc(F)ccc1-n1ccc(C(=O)O)n1 | 197 to 199
Oc1ccc(-n2cnc3ccccc32)cc1 | 278 to 280
COc1ccc(C(=O)Cc2ccc(F)cc2)cc1 | 106 to 108
Nc1cc(-c2cc(F)cc(Br)c2)[nH]n1 | 104 to 106
S=C1Nc2ccccc2C2CC=NN12 (stereo not given) | 249 to 251
O=C(O)C(=O)NCC(F)F | 105 to 107
Nc1nnc(-c2ccc(Br)cc2)o1 | 273 to 275
Cn1ccnc1-c1cc(N)[nH]n1 | 167 to 169
O=C(O)Cc1ccc(S(=O)(=O)CC(F)(F)F)cc1 | 142 to 144
CCOC=C1C(=O)N(c2cccc(C(F)(F)F)c2)C(=O)c2ccccc21 | 194 to 196
CCCCOc1c(Cl)cc(C(=O)O)cc1OCC | 89 to 91
Nc1cc(NC(=O)Cn2cccnc2=O)ccc1F | 251 to 253
O=C(O)CC1Sc2ccc(C(F)(F)F)cc2NC1=O (stereo not given) | 236 to 238
CN(CC(=O)O)c1ccccc1[N+](=O)[O-] | 69 to 71
COc1cc(C=O)ccc1OC(=O)OC(C)(C)C | 89 to 91
Nc1cc(S(=O)(=O)Nc2ccccc2Cl)ccc1O | 195 to 197
O=C(O)C1CCN(C(=O)c2ccc(Br)cc2)CC1 | 202 to 204
NC1=NC(=O)NC12CCCC2 | 250 to 252
CC(=O)CC(=O)Nc1cccnc1Cl | 83 to 85
Cn1c(=O)[nH]c2ccc(C(=O)O)cc21 | 366 to 368
CC1CCC(NC(=O)CCl)CC1 (stereo not given) | 152 to 155
CN1CCC(Oc2ccc(C(=O)O)cc2)CC1 | 218 to 220

SMILES | melting point [°C]
O=C(Nc1ccc(F)cc1F)OCC(F)(F)F | 72 to 74
Nc1nnc(CC2CCCCC2)s1 | 250 to 252
Cc1nc(CC(C)C)c(C(=O)O)s1 | 116 to 118
O=C(O)CCS(=O)c1ccc2c(c1)OCCO2 (stereo not given) | 110 to 112
CC(C)CNc1nc(-c2ccccc2[N+](=O)[O-])cs1 | 86 to 88
CC(C)C1CCNC(=O)CC1 (stereo not given) | 76 to 78
CC(=O)Nc1cc(N)ccc1F | 134 to 136
COc1cccc(-n2c(S)nc(O)cc2=O)c1 | 197 to 199
O=C1COc2ccc(Cl)cc21 | 115 to 117
CC(C)(C)OC(=O)Nc1ccc(CC#N)cc1 | 119 to 121
CC(C)n1ncc2cc(C=O)c(Cl)nc21 | 78 to 80
CC(C)S(=O)(=O)c1ccccc1C(=O)O | 149 to 151
NC(=O)c1cc(C(=O)O)c[nH]1 | 344 to 346
Nc1nc2cnccc2s1 | 275 to 277
NS(=O)(=O)c1ccc2c(c1)CCC(=O)N2 | 263 to 265
Nc1nncc(-c2cccc(F)c2)n1 | 224 to 226
NNC(=O)NC1CCCC1 | 124 to 126
O=C(O)c1cc(S(=O)(=O)Cl)cc(Cl)c1Cl | 151 to 153
NC(=S)C1CN2CCCC2CO1 (stereo not given) | 146 to 148
Cc1cccc(-n2nnnc2S)c1 | 156 to 158
[N-]=[N+]=Nc1ccc(Br)cc1Cl | 60 to 62
CC(C)N1C(=O)NC(=O)C1=O | 92 to 96
Nc1ccc(Cl)cc1C(=O)Nc1ccncc1 | 169 to 171
CC1C=CC2C(=O)N(C)C(=O)C2C1C(=O)O (stereo not given) | 172 to 174
Nc1nc2ncccn2n1 | 185 to 187

SMILES | melting point [°C]
O=C(O)C(=O)c1ccc(Br)cc1O | 188 to 190
CCCSc1nsc(N)n1 | 54 to 56
Nc1cc(Cl)c([N+](=O)[O-])cc1OCc1ccccc1 | 135 to 137
COC(=O)c1ccc(C)c(NC(=O)CCl)c1 | 135 to 137
COCc1ccccc1S(N)(=O)=O | 59 to 61
COc1ccc(C)cc1-c1nn(CC(C)C)cc1C(=O)O | 181 to 183
CN1C(=O)CNC(=O)c2ccccc21 | 175 to 177
Cc1cc(Cl)cc(N)c1I | 48 to 50
Cc1nn(-c2ccccc2)c(C)c1SCC(=O)O | 148 to 150
O=C(O)CCNC(=O)OCc1ccccc1 | 104 to 108
O=[N+]([O-])c1ccccc1CSc1ncccn1 | 60 to 62
Fc1cccc(F)c1-n1c(S)nc2ccccc21 | 255 to 257
Cn1ccnc1SCC(=O)O | 88 to 90
Cc1nc(-c2ccc(O)cc2)no1 | 186 to 188
N#CC(N)Cc1ccccc1 (stereo not given) | 39 to 41
COCCNc1ccc(C(F)(F)F)cn1 | 77 to 79
CCc1nn(C)c2[nH]nc(N)c12 | 123 to 125
CC(NO)c1ccc(F)cc1 (stereo not given) | 74 to 76
O=C(O)CS(=O)c1ccc([N+](=O)[O-])cc1 (stereo not given) | 178 to 180
Cc1ccc(F)c(C(=O)O)c1N | 139 to 141
Clc1cc(-c2ncc[nH]2)ccn1 | 187 to 189
Cc1cc(O)cc(=O)n1CC(=O)O | 248 to 250
CC(C)Oc1ccc(S(=O)(=O)N(C)C)cc1N | 111 to 113
O=C(O)C=Cc1cn(-c2ccccc2)nc1-c1ccccc1 | 207 to 209
Cc1ccc(-c2nnc(CCC(=O)O)o2)cc1 | 169 to 171

SMILES | melting point [°C]
Sc1nnc(-c2cccnc2)n1Cc1ccco1 | 117 to 119
CC(=O)c1cccc(S(=O)(=O)NC(CC(N)=O)C(=O)O)c1 (stereo not given) | 191 to 193
O=C(Nc1cn[nH]c1)OCC(F)(F)F | 151 to 153
CCOc1ccc(C=C(C#N)C(=O)O)cc1 | 228 to 230
FC(F)(F)c1cccc(-c2ncc[nH]2)c1 | 151 to 153
NC(=O)NC1(C(=O)O)CC1 | 189 to 191
CN(CCCNC(=O)CCl)S(C)(=O)=O | 79 to 81
CN(C)c1ccc(C(N)=O)cc1 | 207 to 209
CC(=O)c1ccc(N2CCOC2=O)cc1 | 149 to 151
Cc1ccc(-n2c(SCC(=O)NN)nnc2-c2ccccc2)cc1 | 90 to 92
COc1ccc(C(N)CN2CCN(C)CC2)cc1 (stereo not given) | 82 to 84
N#CC=C(Cl)c1ccccc1 | 32 to 34
Nc1nc(CC(=O)c2ccccc2)cs1 | 157 to 159
Cc1cc(Cl)nc2c(C(C)C)cccc12 | 43 to 45
C=CC(=O)ON=C(N)c1cccc(Cl)c1 | 114 to 116
CN(C)S(=O)(=O)c1ccc(O)c(N)c1 | 154 to 156
COc1ccc(Oc2ccc(C=O)cc2[N+](=O)[O-])cc1 | 67 to 69
CC(=O)NCc1ccc(C(=O)O)cc1 | 188 to 190
COc1cc(CN)cc(OC)c1O | 149 to 151
O=C(O)CC1CCC(c2ccccc2)CC1 (stereo not given) | 83 to 85
